Data set [1] relates to PC-3. The data set is described as follows: Antiproliferative activity against human PC-3 cells after 72 hrs by MTT assay. Type of data set: functional, cell-based. The conditions noted are these: PC-3, 72 h. For orientation: Tetrazolium assays rely on reduction of a dye to a coloured formazan, in cell work by metabolically active cells.
In data set [2] the test system is HeLa. Description: Antiproliferative activity against human HeLa cells after 72 hrs by MTT assay. Type of data set: functional, cell-based.
Data set [3] has as its system WI-38. The data set is described as follows: Antiproliferative activity against human WI-38 cells after 72 hrs by MTT assay. Type of data set: functional, cell-based. The conditions noted are these: WI-38, 72 h.
Data set [4] relates to MCF7. The data set is described as follows: Induction of apoptosis in human MCF7 cells assessed as late apoptotic cells level measured by propidium iodide/RNAse staining based flow cytometry analysis (reference value: 0.22%). Format: functional. (Flow cytometry measures light scatter and fluorescence of single cells or particles in a stream.)
The subject of data set [5] is MCF7. Description: Induction of necrosis in human MCF7 cells assessed as necrotic cells level measured by propidium iodide/RNAse staining based flow cytometry analysis (reference value: 0.9%). Format: functional.
Data set [6] has as its system MCF7. Description: Induction of cell cycle arrest in human MCF7 cells assessed as increase in DNA content at S phase measured by propidium iodide/RNAse staining based flow cytometry analysis (reference value: […]%). Type of data set: functional.
The target of data set [7] is T1, Dihydrofolate reductase (Homo sapiens, UniProt P00374).
T1 sequence (P00374 whole entry): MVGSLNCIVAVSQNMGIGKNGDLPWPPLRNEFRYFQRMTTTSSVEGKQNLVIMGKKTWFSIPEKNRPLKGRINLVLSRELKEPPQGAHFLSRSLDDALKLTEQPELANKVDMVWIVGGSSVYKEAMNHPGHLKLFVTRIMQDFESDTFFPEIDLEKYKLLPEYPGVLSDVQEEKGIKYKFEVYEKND
The data set is described as follows: Inhibition of recombinant human DHFR expressed in Escherichia coli incubated for 15 mins and measured by ELISA. (In general: In an ELISA, binding on a coated surface is turned into a signal by an enzyme label.)

In data set [8] the target is Epidermal growth factor receptor (Homo sapiens, UniProt P00533).
Epidermal growth factor receptor, sequence (P00533 whole entry): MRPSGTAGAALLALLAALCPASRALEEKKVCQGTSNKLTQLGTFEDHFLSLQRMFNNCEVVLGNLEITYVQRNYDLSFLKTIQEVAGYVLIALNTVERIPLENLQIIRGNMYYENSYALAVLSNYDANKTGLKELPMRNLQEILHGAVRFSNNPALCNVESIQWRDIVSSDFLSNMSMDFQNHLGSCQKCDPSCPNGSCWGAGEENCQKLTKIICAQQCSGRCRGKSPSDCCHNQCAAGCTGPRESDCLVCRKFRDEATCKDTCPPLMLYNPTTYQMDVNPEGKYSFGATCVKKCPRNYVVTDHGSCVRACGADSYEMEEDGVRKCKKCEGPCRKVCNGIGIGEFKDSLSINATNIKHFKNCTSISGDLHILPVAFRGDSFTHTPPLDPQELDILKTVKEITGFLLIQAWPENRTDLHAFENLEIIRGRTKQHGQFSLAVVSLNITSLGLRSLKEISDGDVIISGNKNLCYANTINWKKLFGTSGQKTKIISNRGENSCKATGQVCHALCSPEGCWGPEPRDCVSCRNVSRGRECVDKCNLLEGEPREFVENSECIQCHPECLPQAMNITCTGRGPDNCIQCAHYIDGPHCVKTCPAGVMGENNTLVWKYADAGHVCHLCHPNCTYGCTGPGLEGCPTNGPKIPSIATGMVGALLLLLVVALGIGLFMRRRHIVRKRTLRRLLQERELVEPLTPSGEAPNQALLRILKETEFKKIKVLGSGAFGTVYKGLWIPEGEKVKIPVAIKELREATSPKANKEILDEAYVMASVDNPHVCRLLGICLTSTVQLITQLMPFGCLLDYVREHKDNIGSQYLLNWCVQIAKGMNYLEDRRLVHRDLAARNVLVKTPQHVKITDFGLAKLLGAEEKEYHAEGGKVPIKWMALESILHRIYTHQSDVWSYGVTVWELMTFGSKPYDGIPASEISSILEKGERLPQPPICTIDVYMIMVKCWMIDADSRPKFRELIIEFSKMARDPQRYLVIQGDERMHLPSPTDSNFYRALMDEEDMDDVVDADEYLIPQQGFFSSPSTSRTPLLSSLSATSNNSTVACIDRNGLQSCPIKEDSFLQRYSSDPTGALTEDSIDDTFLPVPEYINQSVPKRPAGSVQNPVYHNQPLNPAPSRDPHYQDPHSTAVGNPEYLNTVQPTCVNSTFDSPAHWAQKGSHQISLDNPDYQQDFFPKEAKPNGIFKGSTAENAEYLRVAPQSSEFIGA
Description: Inhibition of recombinant human EGFR incubated for 40 to 45 mins and measured after 15 mins by Kinase-Glo Max assay
The subject of data set [9] is MCF7. Description: Induction of apoptosis in human MCF7 cells assessed as early apoptotic cells level measured by propidium iodide/RNAse staining based flow cytometry analysis (reference value: […]). Type of data set: functional.
Data set [10] has as its system MCF7. Description: Induction of cell cycle arrest in human MCF7 cells assessed as increase in DNA content at G0/G1 phase measured by propidium iodide/RNAse staining based flow cytometry analysis (reference value: 57.82%). Format: functional.
Data set [11] relates to Breast cancer cell line. The data set is described as follows: Antitumor activity in 7,12-dimethylbenz [a]anthracene-induced non-lactating mammary glands solid tumor model of female Swiss albino mouse assessed as absence of ductal carcinoma in mammary gland at 10 mg/kg, ip measured by H and E staining method. Format: functional, organism-based.
In data set [12] the test system is MCF7. Description: Induction of apoptosis in human MCF7 cells assessed as total apoptotic cells level measured by propidium iodide/RNAse staining based flow cytometry analysis (reference value: 0.73%). Type of data set: functional.
Data set [13] relates to MCF7. The data set is described as follows: Induction of cell cycle arrest in human MCF7 cells assessed as decrease in DNA content at G2/M phase measured by propidium iodide/RNAse staining based flow cytometry analysis (reference value: 13.4%). Type of data set: functional. Details: scale not given: the % may be the effect or the level left.
A short description of data set [14]: Toxicity in 7,12-dimethylbenz [a]anthracene-induced non-lactating mammary glands solid tumor model of female Swiss albino mouse assessed as reduction in body weight at 10 mg/kg, ip. The conditions noted are these: in vivo. Format: organism-based. Further details: scale not given: the % may be the effect or the level left.
Data set [15] is described as follows: Toxicity in 7,12-dimethylbenz [a]anthracene-induced non-lactating mammary glands solid tumor model of female Swiss albino mouse assessed as mean body weight at 10 mg/kg, ip. Type of data set: organism-based. The conditions noted are these: in vivo.
Data set [16] is described as follows: Antitumor activity in 7,12-dimethylbenz [a]anthracene-induced non-lactating mammary glands solid tumor model of female Swiss albino mouse assessed as mean tumor volume at 10 mg/kg, ip. Type of data set: functional.
Data set [17] concerns HCT-116. Description: cells. The conditions noted are these: Homo sapiens, HCT-116, 72 h.
Description: Antiproliferative activity against human HCT-116 cells after 72 hrs by MTT assay
Data set [18] concerns MCF7. The data set is described as follows: cells. The conditions noted are these: Homo sapiens, MCF7, 72 h.
Data set [19] relates to HepG2. Description: cells. The conditions noted are these: Homo sapiens, HepG2, 72 h.
Data set [20] is described as follows: Antitumor activity in 7,12-dimethylbenz [a]anthracene-induced non-lactating mammary glands solid tumor model of female Swiss albino mouse assessed as reduction in tumor volume at 10 mg/kg, ip. Type of data set: functional. Details: scale not given: the % may be the effect or the level left.
The target of data set [21] is Receptor tyrosine-protein kinase erbB-2 (Homo sapiens, UniProt P04626). Description: Inhibition of recombinant human HER2 incubated for 40 to 45 mins and measured after 15 mins by Kinase-Glo Max assay.
Receptor tyrosine-protein kinase erbB-2, sequence (P04626 whole entry): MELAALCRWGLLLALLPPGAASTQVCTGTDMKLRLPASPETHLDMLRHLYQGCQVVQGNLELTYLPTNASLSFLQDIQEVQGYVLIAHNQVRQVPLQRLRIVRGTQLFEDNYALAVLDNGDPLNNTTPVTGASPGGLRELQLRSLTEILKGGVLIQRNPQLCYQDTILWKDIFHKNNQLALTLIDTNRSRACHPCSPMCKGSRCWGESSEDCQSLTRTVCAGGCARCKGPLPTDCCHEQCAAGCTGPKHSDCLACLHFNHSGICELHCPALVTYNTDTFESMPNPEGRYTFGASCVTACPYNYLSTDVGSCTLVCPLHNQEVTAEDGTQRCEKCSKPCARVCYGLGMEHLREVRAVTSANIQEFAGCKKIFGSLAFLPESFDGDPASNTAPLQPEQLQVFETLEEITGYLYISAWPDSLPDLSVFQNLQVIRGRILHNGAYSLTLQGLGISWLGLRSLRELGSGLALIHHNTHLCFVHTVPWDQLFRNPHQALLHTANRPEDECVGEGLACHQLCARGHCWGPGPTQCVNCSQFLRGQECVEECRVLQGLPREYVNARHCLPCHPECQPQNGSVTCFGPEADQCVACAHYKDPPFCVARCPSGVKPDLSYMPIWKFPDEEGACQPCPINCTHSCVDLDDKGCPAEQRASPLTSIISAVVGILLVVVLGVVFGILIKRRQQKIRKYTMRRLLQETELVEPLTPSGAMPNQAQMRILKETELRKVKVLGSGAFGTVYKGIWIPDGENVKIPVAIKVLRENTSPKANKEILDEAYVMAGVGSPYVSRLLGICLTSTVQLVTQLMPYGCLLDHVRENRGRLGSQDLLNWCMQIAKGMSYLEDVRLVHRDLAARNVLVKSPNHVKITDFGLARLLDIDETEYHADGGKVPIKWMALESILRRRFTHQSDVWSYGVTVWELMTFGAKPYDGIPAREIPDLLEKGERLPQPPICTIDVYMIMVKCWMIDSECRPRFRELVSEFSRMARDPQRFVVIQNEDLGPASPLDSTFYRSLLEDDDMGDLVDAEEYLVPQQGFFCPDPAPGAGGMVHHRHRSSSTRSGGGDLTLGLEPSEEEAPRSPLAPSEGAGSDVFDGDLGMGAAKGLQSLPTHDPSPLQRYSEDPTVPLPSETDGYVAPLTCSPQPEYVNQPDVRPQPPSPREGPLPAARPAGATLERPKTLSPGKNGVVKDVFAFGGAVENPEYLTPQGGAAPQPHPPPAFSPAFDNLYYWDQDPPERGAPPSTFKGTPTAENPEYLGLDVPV
Data set [22] relates to Breast carcinoma cell. The data set is described as follows: Induction of apoptosis in human breast cancer cells assessed as normalization of caspase-3 expression measured as caspase-3 score. Format: functional, Breast cancer cell line.
Data set [23] can be described thus: Toxicity in 7,12-dimethylbenz [a]anthracene-induced non-lactating mammary glands solid tumor model of female Swiss albino mouse assessed as reduction in body weight at 2 mg/kg, ip. Type of data set: organism-based. Further details: scale not given: the % may be the effect or the level left. The conditions noted are these: in vivo.
Data set [24] in a line: Antitumor activity in 7,12-dimethylbenz [a]anthracene-induced non-lactating mammary glands solid tumor model of female Swiss albino mouse assessed as mean tumor volume at 2 mg/kg, ip. Format: functional.
Data set [25] is described as follows: Antitumor activity in 7,12-dimethylbenz [a]anthracene-induced non-lactating mammary glands solid tumor model of female Swiss albino mouse assessed as reduction in tumor volume at 2 mg/kg, ip. Format: functional. Details: scale not given: the % may be the effect or the level left.
Data set [26] is described as follows: Toxicity in 7,12-dimethylbenz [a]anthracene-induced non-lactating mammary glands solid tumor model of female Swiss albino mouse assessed as mean body weight at 2 mg/kg, ip. The conditions noted are these: in vivo. Type of data set: organism-based.

pIC50: −log10 of the molar value. Activity calls are given as the source filed them. No cut-off for these calls is given here.

This is an account of results in ChEMBL document CHEMBL5108025, “New thiazole-based derivatives as EGFR/HER2 and DHFR inhibitors: Synthesis, molecular modeling simulations and anticancer activity” (Eur J Med Chem, 2022).

What is called pIC50 is the IC50 on a negative log10 scale, so that one unit is a factor of ten.

Turning to `COc1ccc(-c2c(CN3CCOCC3)nc3scc(C(=O)NN)n23)cc1`, the pIC50 is 4.74 in [1]; 5.03 in data set [2]; 4.43 in [3]; 6.23 in data set [7]; 6.91 in data set [8]; 4.79 in data set [17]. Moreover, the figures for the pIC50 in [18], in data set [19] and in data set [21] were 5.63, 4.91 and 7.11, respectively. Moreover, the Activity in data set [4] was determined as 22.19%; in data set [5], 3.25%; in [6], 25.49%; in data set [9], 13.27%; in data set [10], 64.25%; in data set [12], 35.46%. Also, the Activity was found to be 10.26% in [13]; 7.4% in [14]; 35.2 g in data set [15]; 1.098 mm3 in data set [16]; 65.3% in data set [20]; 1.17 in data set [22]. Moreover, the outcome in data set [11] was Active.

As to `Cc1ccc(-c2c(CN3CCOCC3)nc3scc(C(=O)NN)n23)cc1`, the negative logarithm of the IC50 (pIC50) in [1] was 4.95; in [2] it was 5.16; in [3], 4.05; in [7], 6.91; in data set [8] it was 6.61; in data set [17], 4.88. Moreover, the values for the pIC50 in [18], in data set [19] and in [21] were 5.07, 5.01 and 6.45, respectively.

Regarding `NNC(=O)c1csc2nc(CN3CCOCC3)c(-c3ccc(Br)cc3)n12`, the pIC50 was 4.66 in [1]; 5.44 in data set [2]; 4.30 in data set [3]; 5.48 in [7]; 6.38 in [8]; 4.75 in data set [17]. Also, the pIC50 in data set [18] is 5.21; in data set [19], 5.24; in data set [21], 6.92.

Regarding `CC(=O)NNC(=O)c1csc2ncc(-c3ccc(Br)cc3)n12`, the pIC50 in data set [1] is 4.89; in data set [2] it was 5.32; in data set [3], 4.27; in data set [7], 6.54; in data set [8], 6.82; in data set [17], 5.22. For the same molecule, the pIC50 was 5.74 in data set [18], 5.46 in data set [19] and 6.97 in data set [21]. Besides, the Activity in data set [4] is 28.04%; in data set [5], 6.72%; in [6], 32.15%; in [9] it was 9.63%; in data set [10] it was 62.61%; in data set [12], 37.67%. Also, the Activity amounted to 5.24% in [13]; 17.4% in data set [14]; 31.4 g in data set [15]; 0.742 mm3 in data set [16]; 76.5% in data set [20]; 1.33 in [22]. Moreover, in data set [11], the outcome was Active.

Take `CCC(=O)NNC(=O)c1csc2ncc(-c3ccc(C)cc3)n12`: the pIC50 in data set [1] was 4.73; in data set [2], 4.89; in [3], 4.17; in data set [7], 5.25; in data set [8], 6.35; in [17] it was 5.03. Besides, the negative-log IC50 (pIC50) in [18] is 5.28; in data set [19], 5.13; in data set [21], 6.61.

For `Cc1ccc(-c2c(CN3CCCCC3)nc3scc(C(=O)O)n23)cc1`, the negative-log IC50 (pIC50) in [1] is 4.78; in data set [2], 5.12; in [3], less than 4.00; in [7], 6.04; in data set [8], 6.74; in data set [17], 4.86. The figures for the negative-log IC50 (pIC50) in data set [18], in [19] and in [21] were 5.08, 4.97 and 6.84, respectively.

`COc1cccc2c1C(=O)c1c(O)c3c(c(O)c1C2=O)C[C@@](O)(C(=O)CO)C[C@@H]3O[C@H]1C[C@H](N)[C@H](O)[C@H](C)O1` [DOXORUBICIN]: the negative-log IC50 (pIC50) in [1] was 5.07; in [2] it was 5.05. Also, the Activity in data set [23] turned out to be 23.7%; in [24] it was 0.62 mm3; in data set [25] it was 80.4%; in [26], 29 g; in data set [22] it was 1.5.
